{"source": "patent US20210319872A1", "about": "“DRUG AND DEVICE COMBINATION PRODUCTS WITH IMPROVED SAFETY AND EFFICACY PROFILES” (priority 2016, published 2021)", "origin": "cited, not measured here", "conditions": "in vivo", "data": [{"compound": "O=C(O)Cc1ccccc1Nc1c(Cl)cccc1Cl", "note": "[Zorvolex]", "values": [{"measurement": "Constipation", "result": "Gastrointestinal: Constipation (5% to 8%), Diarrhea (6%), Nausea"}, {"measurement": "Diarrhea", "result": "Gastrointestinal: Constipation (5% to 8%), Diarrhea (6%), Nausea"}, {"measurement": "Headache", "result": "Neurologic: Headache (4% to 8%)"}, {"measurement": "Nasopharyngitis", "result": "Respiratory: Nasopharyngitis (6%), Sinusitis (3% to 5%), Upper"}, {"measurement": "Nausea", "result": "(6% to 7%)"}, {"measurement": "Serious side effect, Cardiovascular", "result": "Cardiovascular: Myocardial infarction, Thrombosis"}, {"measurement": "Serious side effect, Gastrointestinal", "result": "Gastrointestinal: Gastrointestinal hemorrhage, Gastrointestinal"}, {"measurement": "Serious side effect, Immunologic", "result": "Immunologic: Anaphylactoid reaction"}, {"measurement": "Serious side effect, Neurologic", "result": "Neurologic: Cerebrovascular accident"}, {"measurement": "Serious side effect, Renal", "result": "Renal: Acute renal failure"}, {"measurement": "Serious side effect, Respiratory", "result": "Respiratory: Bronchospasm"}, {"measurement": "Sinusitis", "result": "Respiratory: Nasopharyngitis (6%), Sinusitis (3% to 5%), Upper"}, {"measurement": "Upper respiratory infection", "result": "respiratory infection (8%)"}, {"measurement": "Urinary tract infectious disease", "result": "Renal: Urinary tract infectious disease (7%)"}]}, {"compound": "CCOC(=O)[C@H](CCc1ccccc1)N[C@@H](C)C(=O)N1Cc2cc(OC)c(OC)cc2C[C@H]1C(=O)O", "note": "[Moexipril (Univasc)]", "values": [{"measurement": "Common side effects, listed without incidence", "result": "Other: Influenza-like symptoms"}, {"measurement": "Cough", "result": "Respiratory: Cough (6.1%)"}, {"measurement": "Diarrhea", "result": "Gastrointestinal: Diarrhea (3.1%)"}, {"measurement": "Dizziness", "result": "Neurologic: Dizziness (4.3%)"}]}, {"compound": "CN1CC[C@]23c4c5ccc(O)c4O[C@H]2[C@@H](O)C=C[C@H]3[C@H]1C5", "note": "[morphine, reference compound]", "values": [{"measurement": "Drowsiness or Sedation", "result": "severe sedation and drowsiness"}]}, {"compound": "Nc1nnc(-c2cccc(Cl)c2Cl)c(N)n1", "note": "[Lamotrigine (Lamictal)]", "values": [{"measurement": "Abdominal pain", "result": "Gastrointestinal: Abdominal pain (immediate-release, 5% to 10%),"}, {"measurement": "Anemia", "result": "Hematologic: Anemia (immediate release, less than 0.1%),"}, {"measurement": "Angioedema", "result": "Other: Angioedema (less than 0.1%), Neuroleptic malignant"}, {"measurement": "Ataxia", "result": "release, 6%), Ataxia (immediate-release, 2% to 11%), Coordination"}, {"measurement": "Coordination problem", "result": "problem (immediate-release, 6% to 7%; extended-release, 3%),"}, {"measurement": "Depression", "result": "3%), Depression (immediate-release, 4%; extended-release, 3%)"}, {"measurement": "Diarrhea", "result": "Diarrhea (immediate-release, 6% to 11%; extended-release, 5%),"}, {"measurement": "Dizziness", "result": "Dizziness (immediate-release, 7% to 54%; extended release, 14%),"}, {"measurement": "Dysmenorrhea", "result": "Reproductive: Dysmenorrhea (immediate-release, 5% to 7%)"}, {"measurement": "Headache", "result": "Headache (immediate-release, 29%), Insomnia (immediate-release,"}, {"measurement": "Indigestion", "result": "Indigestion (immediate-release, 2% to 7%), Nausea (immediate-"}, {"measurement": "Insomnia", "result": "5% to 10%), Somnolence (immediate-release, 9% to 17%;"}, {"measurement": "Nausea", "result": "release, 7% to 25%; extended-release, 7%), Vomiting (immediate-"}, {"measurement": "Pain", "result": "Other: Pain (immediate-release, 5%)"}, {"measurement": "Rash", "result": "Dermatologic: Rash (7% to 14%)"}, {"measurement": "Rash, Serious", "result": "Serious (0.08% to 0.8%), Stevens-Johnson syndrome (0.08% to"}, {"measurement": "Rhinitis", "result": "Respiratory: Rhinitis (immediate-release, 7% to 14%)"}, {"measurement": "Vomiting", "result": "release, 5% to 20%; extended-release, 6%))"}]}, {"compound": "OCCOCCN1CCN(C2=Nc3ccccc3Sc3ccccc32)CC1", "note": "[Seroquel (Quetiapine)]", "values": [{"measurement": "Abdominal pain", "result": "Gastrointestinal: Abdominal pain (3% to 7%), Constipation (2% to"}, {"measurement": "Agitation", "result": "Psychiatric: Agitation (6% to 20%)"}, {"measurement": "Asthenia", "result": "Neurologic: Asthenia (Up to 10%), Dizziness (8% to 19%),"}, {"measurement": "Backache", "result": "Musculoskeletal: Backache (3% to 5%)"}, {"measurement": "Dizziness", "result": "Neurologic: Asthenia (Up to 10%), Dizziness (8% to 19%),"}, {"measurement": "Extrapyramidal disease", "result": "Extrapyramidal disease (1.1% to 12.9%), Headache (17% to 21%),"}, {"measurement": "Fatigue", "result": "Other: Fatigue (3% to 14%), Pain (7%)"}, {"measurement": "Headache", "result": "Extrapyramidal disease (1.1% to 12.9%), Headache (17% to 21%),"}, {"measurement": "Increased appetite", "result": "11%), Increased appetite (2% to 12%), Indigestion (2% to 7%),"}, {"measurement": "Increased liver enzymes", "result": "Hepatic: Increased liver enzymes (1% to 6%)"}, {"measurement": "Indigestion", "result": "11%), Increased appetite (2% to 12%), Indigestion (2% to 7%),"}, {"measurement": "Insomnia", "result": "Insomnia (8% to 12%), Lethargy (1% to 5%), Somnolence (18% to"}, {"measurement": "Lethargy", "result": "Insomnia (8% to 12%), Lethargy (1% to 5%), Somnolence (18% to"}, {"measurement": "Nasal congestion", "result": "Respiratory: Nasal congestion (3% to 5%), Pharyngitis (4% to 6%)"}, {"measurement": "Nausea", "result": "Nausea (Pediatric, 6% to 10%), Vomiting (Pediatric, 7% to 8%),"}, {"measurement": "Neutropenia", "result": "Hematologic: Agranulocytosis, Leukopenia, Neutropenia (0.3% to"}, {"measurement": "Orthostatic hypotension", "result": "Orthostatic hypotension (Up to 7%), Tachycardia (Up to 6%)"}, {"measurement": "Pain", "result": "Other: Fatigue (3% to 14%), Pain (7%)"}, {"measurement": "Pharyngitis", "result": "Respiratory: Nasal congestion (3% to 5%), Pharyngitis (4% to 6%)"}, {"measurement": "Prolonged QT interval", "result": "Cardiovascular: Prolonged QT interval (0.1% to less than 1%),"}, {"measurement": "Seizure", "result": "Neurologic: Seizure (0.05% to 0.5%), Tardive dyskinesia"}, {"measurement": "Serious side effect, Cardiovascular", "result": "Sudden cardiac death, Syncope (0.3% to 1%)"}, {"measurement": "Serious side effect, Endocrine metabolic", "result": "Endocrine metabolic: Diabetic ketoacidosis"}, {"measurement": "Serious side effect, Gastrointestinal", "result": "Gastrointestinal: Pancreatitis"}, {"measurement": "Serious side effect, Hematologic", "result": "Hematologic: Agranulocytosis, Leukopenia, Neutropenia (0.3% to"}, {"measurement": "Serious side effect, Immunologic", "result": "Immunologic: Anaphylaxis"}, {"measurement": "Serious side effect, Neurologic", "result": "Neurologic: Seizure (0.05% to 0.5%), Tardive dyskinesia"}, {"measurement": "Serious side effect, Other", "result": "Other: Neuroleptic malignant syndrome"}, {"measurement": "Serious side effect, Psychiatric", "result": "Psychiatric: Suicidal thoughts"}, {"measurement": "Serious side effect, Reproductive", "result": "Reproductive: Priapism"}, {"measurement": "Serum cholesterol raised", "result": "Endocrine metabolic: Serum cholesterol raised (7% to 18%), Serum"}, {"measurement": "Serum triglycerides raised", "result": "triglycerides raised (8% to 28%), Weight gain (3% to 28%)"}, {"measurement": "Somnolence", "result": "Insomnia (8% to 12%), Lethargy (1% to 5%), Somnolence (18% to"}, {"measurement": "Syncope", "result": "Sudden cardiac death, Syncope (0.3% to 1%)"}, {"measurement": "Tachycardia", "result": "Orthostatic hypotension (Up to 7%), Tachycardia (Up to 6%)"}, {"measurement": "Tremor", "result": "57%), Tremor (2% to 8%)"}, {"measurement": "Vomiting", "result": "Nausea (Pediatric, 6% to 10%), Vomiting (Pediatric, 7% to 8%),"}, {"measurement": "Weight gain", "result": "triglycerides raised (8% to 28%), Weight gain (3% to 28%)"}, {"measurement": "Xerostomia", "result": "Xerostomia (Adult, 9% to 44%; pediatric, 4% to 10%)"}]}, {"compound": "CNCC[C@H](Oc1cccc2ccccc12)c1cccs1", "note": "[Duloxetine (Cymbalta)]", "values": [{"measurement": "Constipation", "result": "Gastrointestinal: Constipation (9% to 10%), Decrease in appetite"}, {"measurement": "Diaphoresis", "result": "Dermatologic: Diaphoresis (Adult, 6%; pediatric, less than 2%)"}, {"measurement": "Diarrhea", "result": "(6% to 10%), Diarrhea (Adult, 9%; pediatric, 6%), Nausea (18% to"}, {"measurement": "Dizziness", "result": "Neurologic: Asthenia, Dizziness (Adult, 9%; pediatric, 8%),"}, {"measurement": "Headache", "result": "Headache (Adult, 13% to 14%; pediatric, 18%), Hypersomnia,"}, {"measurement": "Hypertension", "result": "Cardiovascular: Hypertension (2%)"}, {"measurement": "Insomnia", "result": "Insomnia (7% to 10%), Sedated, Somnolence"}, {"measurement": "Myocardial infarction", "result": "Cardiovascular: Hypertensive crisis, Myocardial infarction (0.01%"}, {"measurement": "Xerostomia", "result": "23%), Xerostomia (Adult, 11% to 14%; pediatric, 2%)"}]}, {"compound": "C=CCC1(C(C)CCC)C(=O)NC(=O)NC1=O", "note": "(stereo not drawn) [Seconal (secobarbital)]", "values": [{"measurement": "Complex mannerisms - behavior", "result": "Psychiatric: Complex mannerisms - behavior (Less than 1%.)"}, {"measurement": "Liver damage", "result": "Hepatic: Liver damage (less than 1%)"}, {"measurement": "Megaloblastic anemia, With prolonged use", "result": "< 1", "unit": "%)"}, {"measurement": "Serious side effect, Other", "result": "Other: Drug dependence, Withdrawal sign or symptom"}, {"measurement": "Somnolence", "result": "Neurologic: Somnolence (1% to 3%)"}]}]}
